Laboratory results: US5126337A, “Thiazetoquinoline-3-carboxylic acid derivative and a pharmaceutical composition comprising the same” (priority 1989, dated 1992)
≈ marks a conversion by molar mass, not a printed value. Like-named read-outs stand apart in the source and are kept apart here.

How the values were obtained:
Assay in all cases: Antibacterial spectrum, MIC by twofold agar dilution method
Format in all cases: cell-based
[1] = test system: Acinetobacter calcoaceticus HNR 904; details: HNR904, 10^6 cfu/ml, clinically isolated strain, Gram -, 18 hrs at 37° C
Protocol: (§1) Overnight cultures in Mueller-Hinton broth were suspended by buffered saline gelatin. One loopful of the bacterial suspension (10^6 or 10^8 colony-forming units/ml) was incubated onto the plates containing test compounds. The plates were incubated for 18 hrs at 37° C. The MIC was defined by the lowest concentration of the drug that inhibited visible growth of bacteria.

[2] = test system: Acinetobacter calcoaceticus HNR 916; details: HNR916, 10^6 cfu/ml, clinically isolated strain, Gram -, 18 hrs at 37° C
Protocol: as §1

[3] = test system: Acinetobacter calcoaceticus HNR 939; details: HNR939, 10^6 cfu/ml, clinically isolated strain, Gram -, 18 hrs at 37° C
Protocol: as §1

Enterobacter cloacae 963 = details: 10^6 cfu/ml, standard laboratory strain, Gram -, 18 hrs at 37° C
Protocol: as §1

[4] = test system: Enterobacter cloacae HNR 1939; details: HNR1939, 10^6 cfu/ml, clinically isolated strain, Gram -, 18 hrs at 37° C
Protocol: as §1

[5] = test system: Enterobacter cloacae HNR 1941; details: HNR1941, 10^6 cfu/ml, clinically isolated strain, Gram -, 18 hrs at 37° C
Protocol: as §1

[6] = test system: Enterobacter cloacae HNR 1946; details: HNR1946, 10^6 cfu/ml, clinically isolated strain, Gram -, 18 hrs at 37° C
Protocol: as §1

[7] = test system: Enterococcus faecalis HPC 948; details: HPC948, 10^6 cfu/ml, clinically isolated strain, Gram +, 18 hrs at 37° C
Protocol: as §1

[8] = test system: Enterococcus faecalis HPC 975; details: HPC975, 10^6 cfu/ml, clinically isolated strain, Gram +, 18 hrs at 37° C
Protocol: as §1

[9] = test system: Enterococcus faecalis HPC 984; details: HPC984, 10^6 cfu/ml, clinically isolated strain, Gram +, 18 hrs at 37° C
Protocol: as §1

[10] = test system: Escherichia coli NIHJ JC-2; details: NIHJJC2, 10^6 cfu/ml, standard laboratory strain, Gram -, 18 hrs at 37° C
Protocol: as §1

[11] = test system: Klebsiella pneumoniae HNR 828; details: HNR828, 10^6 cfu/ml, clinically isolated strain, Gram -, 18 hrs at 37° C
Protocol: as §1

[12] = test system: Klebsiella pneumoniae HNR 858; details: HNR858, 10^6 cfu/ml, clinically isolated strain, Gram -, 18 hrs at 37° C
Protocol: as §1

[13] = test system: Klebsiella pneumoniae HNR 869; details: HNR869, 10^6 cfu/ml, clinically isolated strain, Gram -, 18 hrs at 37° C
Protocol: as §1

[14] = test system: Pseudomonas aeruginosa HNR 1472; details: HNR1472, 10^6 cfu/ml, clinically isolated strain, Gram -, 18 hrs at 37° C
Protocol: as §1

[15] = test system: Pseudomonas aeruginosa HNR 1489; details: HNR1489, 10^6 cfu/ml, clinically isolated strain, Gram -, 18 hrs at 37° C
Protocol: as §1

[16] = test system: Pseudomonas aeruginosa HNR 1537; details: HNR1537, 10^6 cfu/ml, clinically isolated strain, Gram -, 18 hrs at 37° C
Protocol: as §1

[17] = test system: Pseudomonas aeruginosa IFO 3445; details: IFO3445, 10^6 cfu/ml, standard laboratory strain, Gram -, 18 hrs at 37° C
Protocol: as §1

[18] = test system: Serratia marcescens HNR 1544; details: HNR1544, 10^6 cfu/ml, clinically isolated strain, Gram -, 18 hrs at 37° C
Protocol: as §1

[19] = test system: Serratia marcescens HNR 1767; details: HNR1767, 10^6 cfu/ml, clinically isolated strain, Gram -, 18 hrs at 37° C
Protocol: as §1

[20] = test system: Serratia marcescens HNR 1792; details: HNR1792, 10^6 cfu/ml, clinically isolated strain, Gram -, 18 hrs at 37° C
Protocol: as §1

[21] = test system: Serratia marcescens IAM 1184; details: IAM1184, 10^6 cfu/ml, standard laboratory strain, Gram -, 18 hrs at 37° C
Protocol: as §1

[22] = test system: Staphylococcuss aureus HPC 292
Protocol: as §1

[23] = test system: Staphylococcuss aureus HPC 308; details: 10^6 cfu/ml; clinically isolated strain, Gram +; 18 hrs at 37° C
Protocol: as §1

[24] = test system: Staphylococcuss aureus HPC 527; details: 10^6 cfu/ml; clinically isolated strain, Gram +; 18 hrs at 37° C
Protocol: as §1

[25] = test system: Staphylococuss aureus FDA 209PJC-1; details: 10^6 cfu/ml; standard laboratory strain, Gram +; 18 hrs at 37° C
Protocol: as §1

[26] = test system: Klebsiella pneumoniae PCI-602; details: PCI602, 10^6 cfu/ml, standard laboratory strain, Gram -, 18 hrs at 37° C, read-out: MIC
Protocol: as §1, with “Minimum inhibitory concentrations (MIC) of test compounds were determined by the twofold agar dilution method (Chemotherapy, 29(1), 76(1981)). Overnight” for “Overnight”

[27] = 10^6 cfu/ml, clinically isolated strain, Gram +, 18 hrs at 37° C, read-out: MIC

MIC [1] [mg/L]	MIC [2] [mg/L]	MIC [3] [mg/L]	MIC (Enterobacter cloacae 963) [mg/L]	MIC [4] [mg/L]	MIC [5] [mg/L]	MIC [6] [mg/L]	MIC [7] [mg/L]	MIC [8] [mg/L]	MIC [9] [mg/L]	MIC [10] [mg/L]	MIC [11] [mg/L]	MIC [12] [mg/L]	MIC [13] [mg/L]	MIC [14] [mg/L]	MIC [15] [mg/L]	MIC [16] [mg/L]	MIC [17] [mg/L]	MIC [18] [mg/L]	MIC [19] [mg/L]	SMILES	also measured
12.5 (≈ 31.6 µM)	0.1 (≈ 0.253 µM)	0.78 (≈ 1.97 µM)	0.2 (≈ 0.506 µM)	0.78 (≈ 1.97 µM)	25 (≈ 63.2 µM)	0.78 (≈ 1.97 µM)	3.13 (≈ 7.92 µM)	6.25 (≈ 15.8 µM)	0.78 (≈ 1.97 µM)	0.1 (≈ 0.253 µM)	12.5 (≈ 31.6 µM)	0.78 (≈ 1.97 µM)	6.25 (≈ 15.8 µM)	50 (≈ 126 µM)	0.78 (≈ 1.97 µM)	100 (≈ 253 µM)	0.78 (≈ 1.97 µM)	0.2 (≈ 0.506 µM)	25 (≈ 63.2 µM)	CC1Sc2c(C(=O)O)c(=O)c3cc(F)c(N4CCC(N(C)C)C4)c(F)c3n21 (stereo not drawn) [Example 36, 7-(3-Dimethylamino-1-pyrrolidinyl)-6,8-difluoro-1-methyl-4-oxo-1H,4H-[1,3]thiazeto[3,2-a]quinoline-3-carboxylic acid]	MIC [20]: 12.5 mg/L (≈ 31.6 µM); MIC [21]: 0.2 mg/L (≈ 0.506 µM); MIC [22, 27]: 6.25 mg/L (≈ 15.8 µM); MIC [23]: 1.56 mg/L (≈ 3.95 µM); MIC [24]: 0.2 mg/L (≈ 0.506 µM); MIC [25]: 0.2 mg/L (≈ 0.506 µM); MIC [26]: 0.025 mg/L (≈ 0.0632 µM)
6.25 (≈ 15.2 µM)	0.1 (≈ 0.243 µM)	1.56 (≈ 3.79 µM)	0.39 (≈ 0.947 µM)	0.78 (≈ 1.89 µM)	12.5 (≈ 30.3 µM)	0.78 (≈ 1.89 µM)	1.56 (≈ 3.79 µM)	12.5 (≈ 30.3 µM)	0.39 (≈ 0.947 µM)	0.1 (≈ 0.243 µM)	12.5 (≈ 30.3 µM)	0.78 (≈ 1.89 µM)	3.13 (≈ 7.6 µM)	25 (≈ 60.7 µM)	1.56 (≈ 3.79 µM)	50 (≈ 121 µM)	1.56 (≈ 3.79 µM)	0.2 (≈ 0.486 µM)	12.5 (≈ 30.3 µM)	CC1Sc2c(C(=O)O)c(=O)c3cc(F)c(N4CCC(N(C)C)C4)c(Cl)c3n21 (stereo not drawn) [Example 39, 8-Chloro-7-(3-dimethylamino-1-pyrrolidinyl)-6-fluoro-1-methyl-4-oxo-1H, 4H-[1,3]thiazeto[3,2-a]quinoline-3-carboxylic acid]	MIC [20]: 12.5 mg/L (≈ 30.3 µM); MIC [21]: 0.39 mg/L (≈ 0.947 µM); MIC [22, 27]: 12.5 mg/L (≈ 30.3 µM); MIC [23]: 1.56 mg/L (≈ 3.79 µM); MIC [24]: 0.2 mg/L (≈ 0.486 µM); MIC [25]: 0.2 mg/L (≈ 0.486 µM); MIC [26]: 0.025 mg/L (≈ 0.0607 µM)

SMILES	MIC [1] [mg/L]	MIC [2] [mg/L]	MIC [3] [mg/L]	MIC (Enterobacter cloacae 963) [mg/L]	MIC [4] [mg/L]	MIC [5] [mg/L]	MIC [6] [mg/L]	MIC [7] [mg/L]	MIC [8] [mg/L]	MIC [9] [mg/L]	MIC [10] [mg/L]	MIC [11] [mg/L]	MIC [12] [mg/L]	MIC [13] [mg/L]	MIC [14] [mg/L]	MIC [15] [mg/L]	MIC [16] [mg/L]	MIC [17] [mg/L]	MIC [18] [mg/L]	MIC [19] [mg/L]	also measured
CC1Sc2c(C(=O)O)c(=O)c3cc(F)c(N4CC[C@H](N(C)C)C4)c(F)c3n21 (stereo partly drawn) [Example 37, 7-((S)-3-Dimethylamino-1-pyrrolidinyl)-6,8-difluoro-1-methyl-4-oxo-1H,4H-[1,3]thiazeto[3,2-a]quinoline-3-carboxylic acid]	25 (≈ 63.2 µM)	0.2 (≈ 0.506 µM)	1.56 (≈ 3.95 µM)	0.2 (≈ 0.506 µM)	0.78 (≈ 1.97 µM)	25 (≈ 63.2 µM)	1.56 (≈ 3.95 µM)	3.13 (≈ 7.92 µM)	12.5 (≈ 31.6 µM)	0.78 (≈ 1.97 µM)	0.1 (≈ 0.253 µM)	12.5 (≈ 31.6 µM)	0.78 (≈ 1.97 µM)	3.13 (≈ 7.92 µM)	50 (≈ 126 µM)	0.78 (≈ 1.97 µM)	100 (≈ 253 µM)	0.78 (≈ 1.97 µM)	0.2 (≈ 0.506 µM)	25 (≈ 63.2 µM)	MIC [20]: 12.5 mg/L (≈ 31.6 µM); MIC [21]: 0.39 mg/L (≈ 0.986 µM); MIC ([22]; 18 h): 6.25 mg/L (≈ 15.8 µM); MIC [23]: 3.13 mg/L (≈ 7.92 µM); MIC [24]: 0.2 mg/L (≈ 0.506 µM); MIC [25]: 0.2 mg/L (≈ 0.506 µM); MIC [26]: 0.05 mg/L (≈ 0.126 µM)
